According to ChEMBL document CHEMBL5465560, “Selectivity Literature for EUbOPEN Chemogenomic Library” (2024):

Assays:
[1] = biological target: Death-associated protein kinase 1 (Homo sapiens, UniProt P53355); experiment: Selectivity interaction (KinomeScan (DiscoverX)) EUB0000666a DAPK1; details: at 10 µM
[2] = biological target: T1, Dual specificity mitogen-activated protein kinase kinase 3 (Homo sapiens) (UniProt P46734); experiment: Selectivity interaction (ActivX KiNativ screen (kinase selectivity in THP-1 cell lysates)) EUB0000639a MAP2K3; assay type: subcellular; details: lysate, at 5 µM
T1 sequence (whole entry): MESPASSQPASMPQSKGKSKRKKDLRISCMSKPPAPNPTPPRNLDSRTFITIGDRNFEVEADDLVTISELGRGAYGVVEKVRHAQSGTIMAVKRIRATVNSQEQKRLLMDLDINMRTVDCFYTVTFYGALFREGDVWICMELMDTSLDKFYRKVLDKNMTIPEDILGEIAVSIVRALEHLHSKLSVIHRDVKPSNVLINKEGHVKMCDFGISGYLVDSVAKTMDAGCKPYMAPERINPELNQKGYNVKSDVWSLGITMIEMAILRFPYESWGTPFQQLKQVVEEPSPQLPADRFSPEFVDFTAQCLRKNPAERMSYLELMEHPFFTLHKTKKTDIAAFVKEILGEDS

[3] = biological target: T2, Dual specificity mitogen-activated protein kinase kinase 4 (Homo sapiens) (UniProt P45985); experiment: Selectivity interaction (ActivX KiNativ screen (kinase selectivity in THP-1 cell lysates)) EUB0000639a MAP2K4; assay type: subcellular; details: lysate, at 5 µM
T2 sequence (whole entry): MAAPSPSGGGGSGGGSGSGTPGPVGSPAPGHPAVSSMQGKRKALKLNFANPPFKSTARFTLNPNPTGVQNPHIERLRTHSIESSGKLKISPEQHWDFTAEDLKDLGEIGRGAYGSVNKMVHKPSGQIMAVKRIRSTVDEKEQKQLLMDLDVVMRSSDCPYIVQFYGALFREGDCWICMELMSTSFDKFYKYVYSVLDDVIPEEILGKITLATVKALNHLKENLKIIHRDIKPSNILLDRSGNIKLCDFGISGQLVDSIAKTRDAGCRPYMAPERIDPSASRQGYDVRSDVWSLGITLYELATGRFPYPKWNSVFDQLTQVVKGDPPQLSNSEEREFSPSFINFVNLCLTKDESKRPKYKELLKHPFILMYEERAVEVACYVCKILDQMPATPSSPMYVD

[4] = biological target: Mitogen-activated protein kinase kinase kinase 20 (Homo sapiens) (UniProt Q9NYL2); experiment: Selectivity interaction (KinomeScan (DiscoverX)) EUB0000595a MAP3K20; details: at 10 µM
[5] = biological target: T3, Mitogen-activated protein kinase kinase kinase 12 (Homo sapiens) (UniProt Q12852); experiment: Selectivity interaction (KinomeScan (DiscoverX)) EUB0000092b MAP3K12; details: at 10 µM
T3 sequence (whole entry): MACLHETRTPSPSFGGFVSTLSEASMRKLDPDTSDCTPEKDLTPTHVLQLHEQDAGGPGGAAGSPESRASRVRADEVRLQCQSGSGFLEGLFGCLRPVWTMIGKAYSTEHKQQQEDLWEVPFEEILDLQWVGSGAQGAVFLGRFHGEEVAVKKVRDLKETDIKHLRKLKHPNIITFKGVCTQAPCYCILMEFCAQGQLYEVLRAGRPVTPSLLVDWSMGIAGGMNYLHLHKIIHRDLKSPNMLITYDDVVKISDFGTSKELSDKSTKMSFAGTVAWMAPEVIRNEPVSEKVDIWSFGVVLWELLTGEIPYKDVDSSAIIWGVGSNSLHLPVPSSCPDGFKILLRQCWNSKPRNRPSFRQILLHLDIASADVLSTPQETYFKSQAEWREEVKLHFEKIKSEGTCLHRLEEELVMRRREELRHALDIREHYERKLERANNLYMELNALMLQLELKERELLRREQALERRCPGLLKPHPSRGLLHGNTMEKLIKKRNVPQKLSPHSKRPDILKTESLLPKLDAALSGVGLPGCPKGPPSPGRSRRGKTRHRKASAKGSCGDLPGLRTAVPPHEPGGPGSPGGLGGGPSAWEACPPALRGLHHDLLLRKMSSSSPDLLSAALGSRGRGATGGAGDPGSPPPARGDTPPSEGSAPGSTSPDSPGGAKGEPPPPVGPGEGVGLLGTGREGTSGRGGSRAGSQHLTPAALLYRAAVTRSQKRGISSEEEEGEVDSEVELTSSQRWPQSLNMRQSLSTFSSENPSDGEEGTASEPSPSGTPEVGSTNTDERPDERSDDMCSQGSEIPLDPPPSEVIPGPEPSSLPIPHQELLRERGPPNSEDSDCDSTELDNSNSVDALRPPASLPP

[6] = biological target: Wee1-like protein kinase (Homo sapiens) (UniProt P30291); experiment: Selectivity interaction (KinomeScan (DiscoverX)) EUB0000045b WEE1
[7] = biological target: BDNF/NT-3 growth factors receptor (Homo sapiens) (UniProt Q16620); experiment: Selectivity interaction (Upstate Kinase Profiler service (Millipore)) EUB0000056c NTRK2; details: at 1 µM
[8] = biological target: T4, Receptor-interacting serine/threonine-protein kinase 1 (Homo sapiens) (UniProt Q13546); experiment: Selectivity interaction (KinomeScan (DiscoverX)) EUB0000607a RIPK1; details: at 10 µM
T4 sequence (whole entry): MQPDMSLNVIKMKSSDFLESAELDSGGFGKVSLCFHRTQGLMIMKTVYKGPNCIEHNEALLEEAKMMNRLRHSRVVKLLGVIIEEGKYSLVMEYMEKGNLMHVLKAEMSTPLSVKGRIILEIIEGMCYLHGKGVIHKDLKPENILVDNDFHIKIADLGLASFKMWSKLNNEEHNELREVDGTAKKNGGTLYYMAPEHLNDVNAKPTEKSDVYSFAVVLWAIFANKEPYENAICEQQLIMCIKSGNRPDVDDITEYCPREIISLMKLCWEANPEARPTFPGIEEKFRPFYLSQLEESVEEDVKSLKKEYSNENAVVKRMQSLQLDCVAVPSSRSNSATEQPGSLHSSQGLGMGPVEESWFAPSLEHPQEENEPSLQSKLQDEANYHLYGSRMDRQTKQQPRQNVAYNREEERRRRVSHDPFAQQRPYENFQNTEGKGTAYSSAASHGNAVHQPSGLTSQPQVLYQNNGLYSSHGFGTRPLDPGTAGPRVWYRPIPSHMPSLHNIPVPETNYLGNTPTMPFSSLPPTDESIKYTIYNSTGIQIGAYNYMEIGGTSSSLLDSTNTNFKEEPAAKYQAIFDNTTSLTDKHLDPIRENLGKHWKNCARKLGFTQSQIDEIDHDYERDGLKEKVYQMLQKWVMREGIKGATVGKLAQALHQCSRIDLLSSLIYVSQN

[9] = biological target: Tyrosine-protein kinase Fyn (Homo sapiens) (UniProt P06241); experiment: Selectivity interaction (Kinase panel (Z-LYTE Assay)) EUB0001632a FYN; details: at 10 µM
Sequence of Tyrosine-protein kinase Fyn (Homo sapiens) (P06241 2-537 limits assumed): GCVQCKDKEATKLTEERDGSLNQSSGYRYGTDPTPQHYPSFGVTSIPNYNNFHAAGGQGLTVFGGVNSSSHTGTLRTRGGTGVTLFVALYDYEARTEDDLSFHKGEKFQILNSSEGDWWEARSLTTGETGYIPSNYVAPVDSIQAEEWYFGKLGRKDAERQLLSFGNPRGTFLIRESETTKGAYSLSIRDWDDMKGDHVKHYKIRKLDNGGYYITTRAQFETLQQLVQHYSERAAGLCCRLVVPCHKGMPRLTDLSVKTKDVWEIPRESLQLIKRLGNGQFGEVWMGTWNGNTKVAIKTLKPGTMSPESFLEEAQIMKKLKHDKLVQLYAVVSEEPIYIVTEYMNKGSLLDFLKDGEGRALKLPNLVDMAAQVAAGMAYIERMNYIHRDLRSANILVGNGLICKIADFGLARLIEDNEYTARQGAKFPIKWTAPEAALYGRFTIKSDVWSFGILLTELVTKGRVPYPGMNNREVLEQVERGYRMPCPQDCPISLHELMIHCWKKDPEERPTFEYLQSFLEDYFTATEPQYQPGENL

Sequence of Wee1-like protein kinase (Homo sapiens) (P30291 whole entry, looked up): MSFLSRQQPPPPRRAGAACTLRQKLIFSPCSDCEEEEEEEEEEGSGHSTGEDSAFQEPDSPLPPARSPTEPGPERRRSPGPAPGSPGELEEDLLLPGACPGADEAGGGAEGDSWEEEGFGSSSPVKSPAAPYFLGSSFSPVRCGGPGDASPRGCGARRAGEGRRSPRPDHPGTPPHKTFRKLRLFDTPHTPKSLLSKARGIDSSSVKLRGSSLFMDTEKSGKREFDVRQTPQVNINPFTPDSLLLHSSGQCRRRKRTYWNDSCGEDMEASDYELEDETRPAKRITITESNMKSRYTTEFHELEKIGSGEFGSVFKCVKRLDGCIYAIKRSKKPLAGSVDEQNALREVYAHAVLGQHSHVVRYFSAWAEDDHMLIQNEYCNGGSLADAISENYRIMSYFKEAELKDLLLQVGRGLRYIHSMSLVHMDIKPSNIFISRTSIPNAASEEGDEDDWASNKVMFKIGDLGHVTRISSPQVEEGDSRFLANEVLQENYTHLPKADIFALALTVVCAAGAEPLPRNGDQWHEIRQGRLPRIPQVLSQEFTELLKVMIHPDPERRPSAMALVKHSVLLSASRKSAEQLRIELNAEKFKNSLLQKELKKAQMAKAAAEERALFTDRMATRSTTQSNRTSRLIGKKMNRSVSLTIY
Sequence of Death-associated protein kinase 1 (P53355 whole entry, looked up): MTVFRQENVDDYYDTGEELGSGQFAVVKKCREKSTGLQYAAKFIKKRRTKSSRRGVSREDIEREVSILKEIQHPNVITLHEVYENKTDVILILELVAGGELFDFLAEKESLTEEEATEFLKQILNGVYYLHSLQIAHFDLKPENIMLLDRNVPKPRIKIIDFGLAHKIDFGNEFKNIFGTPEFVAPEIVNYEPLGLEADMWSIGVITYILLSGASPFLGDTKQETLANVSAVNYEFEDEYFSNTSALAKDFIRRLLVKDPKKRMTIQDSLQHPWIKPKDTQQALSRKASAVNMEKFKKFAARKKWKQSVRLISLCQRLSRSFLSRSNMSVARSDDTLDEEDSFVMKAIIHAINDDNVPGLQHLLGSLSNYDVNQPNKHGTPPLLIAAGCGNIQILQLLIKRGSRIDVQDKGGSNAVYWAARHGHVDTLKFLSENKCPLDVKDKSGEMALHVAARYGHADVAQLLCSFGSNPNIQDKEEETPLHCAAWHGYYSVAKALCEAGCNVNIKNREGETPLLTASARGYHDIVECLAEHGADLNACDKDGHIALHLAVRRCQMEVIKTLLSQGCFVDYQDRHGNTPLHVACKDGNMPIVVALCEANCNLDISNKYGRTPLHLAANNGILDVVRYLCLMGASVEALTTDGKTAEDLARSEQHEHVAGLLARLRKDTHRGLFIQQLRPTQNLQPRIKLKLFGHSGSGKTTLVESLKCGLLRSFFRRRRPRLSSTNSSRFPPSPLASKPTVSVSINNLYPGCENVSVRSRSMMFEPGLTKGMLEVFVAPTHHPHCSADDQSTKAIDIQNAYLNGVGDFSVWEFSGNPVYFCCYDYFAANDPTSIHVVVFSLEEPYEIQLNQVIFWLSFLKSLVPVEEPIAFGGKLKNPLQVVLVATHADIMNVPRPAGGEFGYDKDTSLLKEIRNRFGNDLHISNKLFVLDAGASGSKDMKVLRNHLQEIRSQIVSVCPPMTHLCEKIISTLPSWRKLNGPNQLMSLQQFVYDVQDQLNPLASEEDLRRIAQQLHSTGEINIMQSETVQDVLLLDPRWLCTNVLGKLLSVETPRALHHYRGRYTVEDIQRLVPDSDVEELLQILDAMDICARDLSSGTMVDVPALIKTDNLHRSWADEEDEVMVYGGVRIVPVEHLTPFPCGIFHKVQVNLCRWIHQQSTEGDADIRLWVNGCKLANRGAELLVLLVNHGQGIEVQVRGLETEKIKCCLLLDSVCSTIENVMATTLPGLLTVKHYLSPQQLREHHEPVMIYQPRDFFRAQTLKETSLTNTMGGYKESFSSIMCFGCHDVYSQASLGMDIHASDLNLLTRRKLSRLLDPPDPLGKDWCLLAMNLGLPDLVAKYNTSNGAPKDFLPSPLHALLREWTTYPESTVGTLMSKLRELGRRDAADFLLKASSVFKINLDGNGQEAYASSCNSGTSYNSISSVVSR
Sequence of BDNF/NT-3 growth factors receptor (Homo sapiens) (Q16620 32-822 limits assumed): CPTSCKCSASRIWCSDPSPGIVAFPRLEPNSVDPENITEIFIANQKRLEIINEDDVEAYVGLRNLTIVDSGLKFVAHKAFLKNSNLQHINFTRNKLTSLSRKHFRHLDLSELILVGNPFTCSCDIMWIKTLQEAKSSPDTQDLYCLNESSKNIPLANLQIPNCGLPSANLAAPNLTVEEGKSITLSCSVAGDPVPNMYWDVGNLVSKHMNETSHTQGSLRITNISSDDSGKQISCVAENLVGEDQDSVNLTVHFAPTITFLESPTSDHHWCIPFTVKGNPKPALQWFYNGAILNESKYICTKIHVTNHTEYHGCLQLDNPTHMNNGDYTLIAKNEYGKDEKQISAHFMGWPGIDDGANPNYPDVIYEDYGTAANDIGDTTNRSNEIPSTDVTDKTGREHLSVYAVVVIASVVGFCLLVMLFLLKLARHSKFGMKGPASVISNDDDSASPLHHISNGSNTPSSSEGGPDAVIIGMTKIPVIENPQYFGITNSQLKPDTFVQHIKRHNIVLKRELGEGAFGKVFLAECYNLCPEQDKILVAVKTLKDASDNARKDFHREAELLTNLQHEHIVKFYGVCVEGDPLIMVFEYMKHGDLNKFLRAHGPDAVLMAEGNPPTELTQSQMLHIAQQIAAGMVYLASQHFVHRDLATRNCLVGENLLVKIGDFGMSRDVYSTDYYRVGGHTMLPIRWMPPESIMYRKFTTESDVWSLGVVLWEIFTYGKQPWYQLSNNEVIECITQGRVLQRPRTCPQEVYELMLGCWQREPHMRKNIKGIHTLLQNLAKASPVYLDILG
Sequence of Mitogen-activated protein kinase kinase kinase 20 (Homo sapiens) (Q9NYL2 2-800 limits assumed): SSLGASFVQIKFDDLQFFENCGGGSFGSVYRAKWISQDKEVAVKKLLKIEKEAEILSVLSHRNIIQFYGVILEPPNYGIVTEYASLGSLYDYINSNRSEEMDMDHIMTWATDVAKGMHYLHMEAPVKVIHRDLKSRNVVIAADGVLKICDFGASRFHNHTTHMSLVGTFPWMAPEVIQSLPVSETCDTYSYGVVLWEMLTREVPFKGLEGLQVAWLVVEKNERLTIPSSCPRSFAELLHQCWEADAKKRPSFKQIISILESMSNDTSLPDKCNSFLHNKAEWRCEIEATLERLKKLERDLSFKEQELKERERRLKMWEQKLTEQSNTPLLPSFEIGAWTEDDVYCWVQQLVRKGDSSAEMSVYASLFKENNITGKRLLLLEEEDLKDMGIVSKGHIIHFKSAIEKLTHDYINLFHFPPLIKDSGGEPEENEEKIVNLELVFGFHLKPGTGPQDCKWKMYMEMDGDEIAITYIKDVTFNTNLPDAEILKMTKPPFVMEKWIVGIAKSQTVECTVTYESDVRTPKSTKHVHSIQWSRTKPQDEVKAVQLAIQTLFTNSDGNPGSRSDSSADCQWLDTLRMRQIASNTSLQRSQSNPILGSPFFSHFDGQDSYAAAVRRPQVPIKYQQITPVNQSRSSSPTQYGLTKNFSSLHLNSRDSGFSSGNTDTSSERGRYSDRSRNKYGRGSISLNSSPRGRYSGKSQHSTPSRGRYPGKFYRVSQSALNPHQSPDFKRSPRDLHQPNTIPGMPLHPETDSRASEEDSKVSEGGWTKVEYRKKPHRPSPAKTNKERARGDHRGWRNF

O=C(NOC[C@H](O)CO)c1ccc(F)c(F)c1Nc1ccc(I)cc1F
% of control [1]: 100%

CC[C@@H]1[C@H](F)C(=O)N[C@@H]1COc1nccc2cc(C(N)=O)c(OC)cc12 [ZIMLOVISERTIB]
% of inhibition [2]: -185%
% of inhibition [3]: 29.6%

COCC(=O)NC/C=C/c1ccc2ncnc(Nc3ccc(Oc4ccc(C)nc4)c(C)c3)c2c1 [CP-724714]
% of control [4]: 76%

CCC(=O)N1CCN(c2ccc(-n3c(=O)ccc4cnc5ccc(-c6cnc7ccccc7c6)cc5c43)cc2C(F)(F)F)CC1
% of control [5]: 100%

C=CC(=O)Nc1cc(-n2c(=O)ccc3cnc4ccc(-c5ccc(NS(C)(=O)=O)cc5)cc4c32)ccc1C
% of control ([6]; at 1 µM): 100%
% of control ([6]; at 10 µM): 92%

Cc1ccc(-c2ccc3c(ccc4sc5c(c43)NC[C@@H](C)NC5=O)n2)cn1
% of inhibition [7]: -8%

CNC(=O)Nc1ccc(-c2nc(N3CC4CCC(C3)O4)c3cnn(C4CCC5(CC4)OCCO5)c3n2)cc1
% of control [8]: 83%

Cn1cc(-n2cnc3c(NCc4nc5cc(Cl)c(Cl)cc5[nH]4)nc(N4CCOCC4)nc32)cn1
% of control [9]: 1.52%
